No end group written: not given here.
B1: yCD2: human codon optimized yeast cytosine deaminase with substitutions A23L/V108I/I140L (protein, UniProt Q12178 1-158, looked up, variant A23L V108I I140L)
Cytosine deaminase: MVTGGMASKWDQKGMDIAYEEALLGYKEGGVPIGGCLINNKDGSVLGRGHNMRFQKGSATLHGEISTLENCGRLEGKVYKDTTLYTTLSPCDMCTGAIIMYGIPRCVIGENVNFKSKGEKYLQTRGHEVVVVDDERCKKLMKQFIDERPQDWFEDIGE

Experiments:
Tu2449 = experiment: Thymosin combination therapy in Tu2449/B6C3F1 glioma mouse model, survival; assay type: in vivo; conditions: TA1 200 μg/kg IP SID 28 days added to suboptimal Toca511 (E3) and standard BID 5-FC, FIG. 10
Procedure: Experiments using Thymosin Alpha 1 were performed in conjunction with Toca 511 treatment in the Tu2449/B6C3F1 glioma mouse model (U. Pohle et al. Int J Oncol. 15:829-834 (1999); HM. Smilowitz et al. J. Neurosurg 106:652-659 2007). […] Thymosin Alpha 1 was obtained from Sigma Aldrich cat# T3641 and a stock solution made in sterile water at 400 μg/mL. TA1 (200 μg/kg, […]) was given IP starting on day 7 SID for 28 days.

U-87 cells = experiment: yCD2 versus wild type yCD protein level in infected cells (FIG. 4); assay type: cell-based, human; conditions: infected U-87 cells

Row | Molecule | survival rate (Tu2449) | CD protein level (U-87 cells)
1 | thymosin alpha 1 (Ac-SDAAVDTSSEITTKDLKEKKEVVEEAEN; listed as Homo sapiens) [Sigma Aldrich cat# T3641] | increased the survival rate to that of the optimal E5 dosing of Toca 511 | 
2 | B1 |  | higher levels
